Measurements as given in patent US20220267380A1, “Glycopeptides Increasing Lipid Synthesis” (TFCHEM, priority 2019, published 2022).

Test system: normal human dermal fibroblasts (NHDF)
Test: Gene expression in NHDF, full transcriptome analysis with Affymetrix U219 microarray
Assay type: cell-based
Settings: NHDF
Procedure: In the present study, the transcriptional effects (modulation of gene expression) of compounds 1, 2, 3 and 4 were evaluated on normal human dermal fibroblasts (NHDF) under basal conditions.
More specifically, the comparative analysis of the different transcriptomic profiles was performed using an Affymetrix GeneAtlas platform and the human “full transcriptome” U219 chip, which includes 36,000 transcripts and variants.
Fibroblasts were seeded in 24-well plates and cultured in culture medium for 24 hours. The medium was then replaced by assay medium and cells were incubated for further 24 hours. The medium was replaced by assay medium containing or not (control) the test compounds at different concentrations and the cells were preincubated for 24 hours. All experimental conditions were performed in triplicate. At the end of incubation, the culture supernatants were removed and the cells were washed in a phosphate buffered saline (PBS) solution and immediately frozen at −80° C.
Before RNA extraction, the replicates were pooled. Total RNA was extracted from each sample using TriPure Isolation Reagent® according to the supplier's instructions. The amount and quality of total RNA were evaluated for all samples using capillary electrophoresis (Bioanalyzer 2100, Agilent technologies). From each RNA, a labeled and amplified anti-sens RNA (aRNA) was obtained using GeneChip 3′IVT PLUS Kit (Affymetrix). For each labeled and amplified aRNA sample the profiles were evaluated before and after fragmentation using capillary electrophoresis (Bioanalyzer 2100, Agilent technologies). Hybridization of fragmented aRNA onto Affymetrix® U219 chip (36,000 transcripts and variants) was performed in the GeneAtlas™ fluidics Affymetrix® hybridization station for 20 hours at 45° C. U219 chip was analyzed using the GeneAtlas™ Imaging station (Affymetrix®—resolution 2 μm) to generate fluorescence intensity data.
Expression Console and Quality controls: data were normalized with the Expression Console (Affymetrix®) software using RMA algorithm. Then a quality control of the labeling and the hybridization was performed. Hybridization and labeling steps successfully passed the quality controls for these experiments.
Data reduction, Excel file description: once normalized with Expression Console, data were transferred into a Microsoft Excel® file in order to go further into data reduction.
Calculation and tools were added in order to rank and sort data, and finally to support data interpretation. Detection thresholds in terms of fold change were defined and applied on normalized data.
Results are considered and presented or commented per gene (and not probe). A probe set is a collection of probes designed to interrogate a given sequence of a gene. For data interpretation, the most important relative expression value obtained with one probe is considered to be representative of the corresponding gene. The file contains the following data: • Relative expression (RE) for each sample, • Fold change calculation, • Gene information.

[1] = relative expression adjusted to detection limit (<20), 10 mg/ml, 24 h

Compound: CC(=O)N(CCCC[C@H](N)C(=O)O)CC(F)(F)[C@]1(O)O[C@H](CO)[C@H](O)[C@H](O)[C@H]1O [Compound 4]
- effect of treatment of NHDF on lipid synthesis (transcriptional): up regulation of lipids synthesis, including fatty acids, cholesterol or ceramides
- Fold change, CYP51A1///LRRD1 (10 mg/ml, 24 h, vs control): 2.38
- Fold change, DHCR7 (10 mg/ml, 24 h, vs control): 3.24
- Fold change, HMGCS1 (10 mg/ml, 24 h, vs control): 2.39
- Fold change, HSD17B7 (10 mg/ml, 24 h, vs control): 2.43
- Fold change, MVD (10 mg/ml, 24 h, vs control): 2.77
- Fold change, SC5D (10 mg/ml, 24 h, vs control): 2.06
- Fold change, SREBF1 (10 mg/ml, 24 h, vs control): 3.15
- Fold change, POR (10 mg/ml, 24 h, vs control, Affymetrix probe set 11716114_x_at): 3.68
- Fold change, G6PD (10 mg/ml, 24 h, vs control, Affymetrix probe set 11716292_a_at): 2.53
- Fold change, G6PD (10 mg/ml, 24 h, vs control, Affymetrix probe set 11716293_x_at): 2.48
- Fold change, INSIG1 (10 mg/ml, 24 h, vs control, Affymetrix probe set 11716338_a_at): 2.73
- Fold change, INSIG1 (10 mg/ml, 24 h, vs control, Affymetrix probe set 11716339_a_at): 3.73
- Fold change, NSMAF (10 mg/ml, 24 h, vs control, Affymetrix probe set 11717214_s_at): 2.01
- Fold change, LSS (10 mg/ml, 24 h, vs control, Affymetrix probe set 11717620_a_at): 2.14
- Fold change, ASAH1 (10 mg/ml, 24 h, vs control, Affymetrix probe set 11717722_s_at): 2.54
- Fold change, EBP (10 mg/ml, 24 h, vs control, Affymetrix probe set 11717859_a_at): 2.48
- Fold change, COL4A3BP (10 mg/ml, 24 h, vs control, Affymetrix probe set 11721537_a_at): 2.46
- Fold change, COL4A3BP (10 mg/ml, 24 h, vs control, Affymetrix probe set 11721538_a_at): 2.19
- Fold change, HTRA2 (10 mg/ml, 24 h, vs control, Affymetrix probe set 11726630_a_at): 2.06
- Fold change, LSS (10 mg/ml, 24 h, vs control, Affymetrix probe set 11731324_a_at): 3.13
- Fold change, CLN3 (10 mg/ml, 24 h, vs control, Affymetrix probe set 11731408_x_at): 3.73
- Fold change, NSMAF (10 mg/ml, 24 h, vs control, Affymetrix probe set 11740559_a_at): 2.34
- Fold change, NSMAF (10 mg/ml, 24 h, vs control, Affymetrix probe set 11740560_x_at): 2.19
- Fold change, ASAH1 (10 mg/ml, 24 h, vs control, Affymetrix probe set 11740580_at): 2.44
- Fold change, ASAH1 (10 mg/ml, 24 h, vs control, Affymetrix probe set 11740581_s_at): 2.41
- Fold change, ASAH1 (10 mg/ml, 24 h, vs control, Affymetrix probe set 11740582_a_at): 3.46
- Fold change, ASAH1 (10 mg/ml, 24 h, vs control, Affymetrix probe set 11743547_a_at): 3.97
- Fold change, TM7SF2 (10 mg/ml, 24 h, vs control, Affymetrix probe set 11744179_x_at): 2.10
- Fold change, CLN3 (10 mg/ml, 24 h, vs control, Affymetrix probe set 11744874_x_at): 3.98
- Fold change, POR (10 mg/ml, 24 h, vs control, Affymetrix probe set 11746973_x_at): 3.22
- Fold change, CLN3 (10 mg/ml, 24 h, vs control, Affymetrix probe set 11747203_x_at): 2.97
- Fold change, PPP2R1A (10 mg/ml, 24 h, vs control, Affymetrix probe set 11747739_a_at): 2.33
- Fold change, PPP2R1A (10 mg/ml, 24 h, vs control, Affymetrix probe set 11747740_x_at): 2.66
- Fold change, TM7SF2 (10 mg/ml, 24 h, vs control, Affymetrix probe set 11748279_s_at): 2.46
- Fold change, POR (10 mg/ml, 24 h, vs control, Affymetrix probe set 11748368_x_at): 3.37
- Fold change, CLN3 (10 mg/ml, 24 h, vs control, Affymetrix probe set 11748869_a_at): 3.24
- Fold change, CLN3 (10 mg/ml, 24 h, vs control, Affymetrix probe set 11748870_x_at): 3.33
- Fold change, EBP (10 mg/ml, 24 h, vs control, Affymetrix probe set 11749332_x_at): 2.22
- Fold change, COL4A3BP (10 mg/ml, 24 h, vs control, Affymetrix probe set 11749683_a_at): 2.62
- Fold change, DHCR24 (10 mg/ml, 24 h, vs control, Affymetrix probe set 11751337_a_at): 2.11
- Fold change, DHCR24 (10 mg/ml, 24 h, vs control, Affymetrix probe set 11751338_x_at): 2.31
- Fold change, PLA2G15 (10 mg/ml, 24 h, vs control, Affymetrix probe set 11751383_a_at): 2.52
- Fold change, G6PD (10 mg/ml, 24 h, vs control, Affymetrix probe set 11752486_a_at): 3.12
- Fold change, CLN3 (10 mg/ml, 24 h, vs control, Affymetrix probe set 11753053_x_at): 3.08
- Fold change, PLA2G15 (10 mg/ml, 24 h, vs control, Affymetrix probe set 11755396_a_at): 3.26
- Fold change, CLN3 (10 mg/ml, 24 h, vs control, Affymetrix probe set 11756016_x_at): 2.80
- Fold change, HTRA2 (10 mg/ml, 24 h, vs control, Affymetrix probe set 11756421_x_at): 2.15
- Fold change, POR (10 mg/ml, 24 h, vs control, Affymetrix probe set 11757517_x_at): 2.16
- Fold change, COL4A3BP (10 mg/ml, 24 h, vs control, Affymetrix probe set 11758133_s_at): 2.04
- REadj2, CYP51A1///LRRD1 [1]: 2314.08
- REadj2, DHCR7 [1]: 1204.72
- REadj2, HMGCS1 [1]: 1284.34
- REadj2, HSD17B7 [1]: 166.42
- REadj2, MVD [1]: 530.60
- REadj2, SC5D [1]: 537.03
- REadj2, SREBF1 [1]: 456.21
- REadj2, G6PD (relative expression adjusted to detection limit (<20), 10 mg/ml, 24 h, Affymetrix probe set 11716292_a_at): 438.70
- REadj2, G6PD (relative expression adjusted to detection limit (<20), 10 mg/ml, 24 h, Affymetrix probe set 11716293_x_at): 290.47
- REadj2, INSIG1 (relative expression adjusted to detection limit (<20), 10 mg/ml, 24 h, Affymetrix probe set 11716338_a_at): 1272.02
- REadj2, INSIG1 (relative expression adjusted to detection limit (<20), 10 mg/ml, 24 h, Affymetrix probe set 11716339_a_at): 1678.67
- REadj2, EBP (relative expression adjusted to detection limit (<20), 10 mg/ml, 24 h, Affymetrix probe set 11717859_a_at): 1008.77
- REadj2, HTRA2 (relative expression adjusted to detection limit (<20), 10 mg/ml, 24 h, Affymetrix probe set 11726630_a_at): 252.64
- REadj2, TM7SF2 (relative expression adjusted to detection limit (<20), 10 mg/ml, 24 h, Affymetrix probe set 11744179_x_at): 62.22
- REadj2, TM7SF2 (relative expression adjusted to detection limit (<20), 10 mg/ml, 24 h, Affymetrix probe set 11748279_s_at): 100.08
- REadj2, EBP (relative expression adjusted to detection limit (<20), 10 mg/ml, 24 h, Affymetrix probe set 11749332_x_at): 812.08
- REadj2, DHCR24 (relative expression adjusted to detection limit (<20), 10 mg/ml, 24 h, Affymetrix probe set 11751337_a_at): 176.26
- REadj2, DHCR24 (relative expression adjusted to detection limit (<20), 10 mg/ml, 24 h, Affymetrix probe set 11751338_x_at): 345.60
- REadj2, PLA2G15 (relative expression adjusted to detection limit (<20), 10 mg/ml, 24 h, Affymetrix probe set 11751383_a_at): 103.53
- REadj2, G6PD (relative expression adjusted to detection limit (<20), 10 mg/ml, 24 h, Affymetrix probe set 11752486_a_at): 220.41
- REadj2, PLA2G15 (relative expression adjusted to detection limit (<20), 10 mg/ml, 24 h, Affymetrix probe set 11755396_a_at): 177.48
- REadj2, HTRA2 (relative expression adjusted to detection limit (<20), 10 mg/ml, 24 h, Affymetrix probe set 11756421_x_at): 227.59
